Consider 24 compounds from patent US6875761B2 (Eisai Co., Ltd., priority 1997, dated 2005).

Where a name gives a salt, the structure may show the parent alone.

One series concerns the target T1, serotonin 2 receptor (Rattus norvegicus, UniProt P14842).
T1 construct: To the receptor fraction of the cerebral cortex were added a test compound and 0.3 nM of [^3H] ketanserin; from tissue; host or cells: rat cerebral cortex membrane fraction
Briefly: Binding test on [3H] ketanserin, cerebral cortex receptor fraction. Further details: species or system SD rats. The conditions noted are these: 0.3 nM [3H] ketanserin, 37° C. 15 min, read-out: 5HT2.

For a further series, the target named is T2, serotonin 1A receptor (Rattus norvegicus, UniProt P19327).
T2 construct: To the receptor fraction of the hippocampus were added a test compound and 0.5 nM of [^3H]; 8-hydroxy-dipropylaminotetralin; from tissue; host or cells: rat hippocampus membrane fraction
T2 sequence (P19327 1-422): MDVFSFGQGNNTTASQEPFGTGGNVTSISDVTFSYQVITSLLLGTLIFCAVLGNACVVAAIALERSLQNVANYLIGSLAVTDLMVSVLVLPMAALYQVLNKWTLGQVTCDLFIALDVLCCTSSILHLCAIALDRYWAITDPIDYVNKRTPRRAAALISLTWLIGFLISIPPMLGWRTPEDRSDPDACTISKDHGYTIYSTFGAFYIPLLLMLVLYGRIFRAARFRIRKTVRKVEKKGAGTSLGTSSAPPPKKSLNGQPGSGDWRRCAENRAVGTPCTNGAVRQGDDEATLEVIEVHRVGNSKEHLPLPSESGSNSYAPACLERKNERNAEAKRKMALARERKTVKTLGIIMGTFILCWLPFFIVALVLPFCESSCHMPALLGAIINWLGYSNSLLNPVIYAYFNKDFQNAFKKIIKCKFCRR
Briefly: Binding test on [3H] 8-hydroxy-dipropylaminotetralin, hippocampus receptor fraction. The settings on record: rat hippocampus receptor fraction, 0.5 nM [3H] 8-OH-DPAT, room temperature 30 min; read-out: 5HT1. Set-up: species or system SD rats.

T1 sequence (P14842 whole entry): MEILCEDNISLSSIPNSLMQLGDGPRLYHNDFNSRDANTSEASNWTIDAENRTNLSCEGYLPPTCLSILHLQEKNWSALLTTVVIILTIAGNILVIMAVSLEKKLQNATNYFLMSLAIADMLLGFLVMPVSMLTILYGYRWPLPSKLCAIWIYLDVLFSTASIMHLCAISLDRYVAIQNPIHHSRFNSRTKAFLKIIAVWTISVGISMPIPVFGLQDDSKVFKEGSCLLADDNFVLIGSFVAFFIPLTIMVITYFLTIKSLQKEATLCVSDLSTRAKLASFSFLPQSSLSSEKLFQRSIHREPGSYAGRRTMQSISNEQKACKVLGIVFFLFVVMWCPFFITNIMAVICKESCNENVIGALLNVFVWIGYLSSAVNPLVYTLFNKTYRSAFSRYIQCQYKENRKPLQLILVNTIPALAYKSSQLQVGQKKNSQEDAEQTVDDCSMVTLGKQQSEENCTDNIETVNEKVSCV

In the case of `CCN1CCN(c2nc(-c3ccc(OCCN(C)C)cc3)cc3ccccc23)CC1` (as salt: hydrochloride) [Example 49, 1-(1-Ethylpiperazin-4-Yl)-3-[4-(2-Dimethylaminoethoxy)Phenyl]Isoquinoline], the melting point (usually the temperature of the solid-liquid transition) was 153 to 158 °C.

Regarding `CCN1CCN(c2nc(-c3ccc([C@@H]4C[C@H](O)CCO4)cc3)cc3ccsc23)CC1` (relative stereo) (as salt: hydrochloride) [Example 454, 7-(4-Ethylpiperazin-1-yl)-5-[4-(cis-4-hydroxytetrahydropyran-2-yl)phenyl]thieno[2,3-c]pyridine dihydrochloride], the melting point lay within 157 to 159 °C.

In the case of `CCN1CCN(c2nc(-c3ccc(CCCO)cc3)cc3ccccc23)CC1` (as salt: hydrochloride) [Example 20, 1-(4-ethylpiperazin-1-yl)-3-[4-(3-hydroxypropyl)phenyl]isoquinoline hydrochloride], the melting point was in the range of 116 to 119 °C.

In turn, `CCN1CCN(c2nc(-c3ccc(OC)cc3)cc3ccoc23)CC1` (as salt: hydrochloride) [Example 467, 7-(4-ethylpiperazin-1-yl)-5-(4-methoxyphenyl)furo[2,3-c]pyridine dihydrochloride] displayed a melting point of 127 to 128 °C.

`CCN1CCN(c2nc(C3CCCc4ccc(OC)cc43)cc3ccccc23)CC1` (stereo not drawn) (as salt: oxalate) came in with a melting point of 110 to 112 °C.

The compound `CCN1CCN(c2nc(-c3cccc(CCCO)c3)cc3ccccc23)CC1` (as salt: hydrochloride) [Example 418, 1-(4-ethylpiperazin-1-yl)-3-[3-(3-hydroxypropyl)phenyl]isoquinoline] displayed a melting point of 101 to 103 °C.

As to `CCN1CCN(c2nc(-c3ccc(S(=O)(=O)N4CCCC4)cc3)cc3ccccc23)CC1` (as salt: hydrochloride) [Example 356, 1-(4-ethylpiperazin-1-yl)-3-[4-(pyrrolidin-1-yl)sulfonylphenyl]isoquinoline dihydrochloride], the melting point was 238.5 to 240 °C (dec.).

For the compound `CCN1CCN(c2nc(-c3ccc(OCCCC(C)(C)O)cc3)cc3sccc23)CC1` (as salt: hydrochloride) [Example 292, 6-[4-(4-methyl-4-hydroxypentyloxy)phenyl]-4-(4-ethylpiperazin-1-yl)thieno[3,2-c]pyridine], the melting point was in the range of 116 to 118 °C.

In turn, `CC(C)(O)COc1ccc(-c2cc3sccc3c(N3CCN(CCF)CC3)n2)cc1` (as salt: hydrochloride) [Example 294, 6-[4-(2-methyl-2-hydroxypropoxy)phenyl]-4-[4-(2-fluoroethyl)piperazin-1-yl]thieno[3,2-c]pyridine] displayed a melting point of 135 to 137 °C.

Take `CCN1CCN(c2nc(-c3ccc(CNS(=O)(=O)CC)c(Cl)c3)cc3ccccc23)CC1` [Example 91, 3-(3-Chloro-4-ethylsulfonylaminomethylphenyl)-1-(4-ethylpiperazin-1-yl)isoquinoline Hydrochloride]: the results for the Ki at serotonin 2 receptor and at serotonin 1A receptor were 0.0016 µM and 0.0011 µM, respectively.

Take `CCN1CCN(c2nc(/C=C/c3ccc(N4CCOCC4)nn3)cc3ccccc23)CC1` [Example 214, 3-{(E)-2-[3-(4-Morpholinyl)Pyridazin-6-Yl]Ethenyl}-1-(4-Ethylpiperazin-1-Yl)Isoquinoline Oxalate]: the Ki at serotonin 2 receptor amounted to 0.00759 µM; on serotonin 1A receptor, 0.0156 µM.

As for `CCN1CCN(c2nc(-c3ccc(C(O)C(C)(C)CO)cc3)cc3ccccc23)CC1` (stereo not drawn) [Example 391, 1-(4-Ethylpiperazin-1-yl)-3-[4-(1,3-Dihydroxy-2,2-Dimethylpropyl)Phenyl]Isoquinoline Dihydrochloride], the Ki is 0.0128 µM at serotonin 2 receptor and 0.0036 µM on serotonin 1A receptor.

For `CN1CCN(c2nc(-c3ccc(OCCO)cc3)cc3sccc23)CC1` [Example 279, 4-(4-methylpiperazin-1-yl)-6-[4-(2-hydroxyethoxy)phenyl]thieno[3,2-c]pyridine hydrochloride], the Ki at serotonin 2 receptor was determined as 0.00144 µM; on serotonin 1A receptor, 0.0764 µM.

Consider `CCCNC(=O)c1ccc(-c2cc3ccsc3c(N3CCN(CC)CC3)n2)cc1` [Example 449, 7-(4-ethylpiperazin-1-yl)-5-[4-(N-propylcarbamoyl)phenyl]thieno[2,3-c]pyridine dihydrochloride], for which the Ki amounted to 0.0438 µM on serotonin 2 receptor and 0.024 µM on serotonin 1A receptor.

On to `CCN1CCN(c2nc(-c3ccc(S(=O)(=O)N4CCCC4)cc3)cc3ccccc23)CC1` [Example 356, 1-(4-ethylpiperazin-1-yl)-3-[4-(pyrrolidin-1-yl)sulfonylphenyl]isoquinoline dihydrochloride], for which the values for the Ki at serotonin 2 receptor and on serotonin 1A receptor were 0.0242 µM and 0.0021 µM, respectively.

On to `CCN1CCN(c2nc(-c3ccc(CCC(C)(C)O)cc3)cc3ccsc23)CC1` [Example 439, 7-(4-ethylpiperazin-1-yl)-5-[4-(3-hydroxy-3-methylbutyl)phenyl]thieno[2,3-c]pyridine dihydrochloride], for which the Ki at serotonin 2 receptor stood at 0.00603 µM; at serotonin 1A receptor, 0.0442 µM.

`CCN1CCN(c2nc(-c3ccc(S(=O)(=O)N4CCSCC4)cc3)cc3ccccc23)CC1` [Example 76, 3-[(4-Thiomorpholinyl)Sulfonylphenyl]-1-(4-Ethylpiperazin-1-Yl)Isoquinoline Hydrochloride]: the Ki on serotonin 2 receptor was 0.0089 µM; at serotonin 1A receptor it was 0.0057 µM.

Consider `CCN1CCN(c2nc(-c3ccc(OCCCNC(C)=O)cc3)cc3ccccc23)CC1` [Example 50, 3-[4-(3-Acetamidepropoxy)Phenyl]-1-(4-Ethylpiperazin-1-Yl)Isoquinoline Hydrochloride], for which the Ki is 0.0219 µM on serotonin 2 receptor and 0.0252 µM on serotonin 1A receptor.

With `CCCCNC(=O)c1ccc(-c2cc3ccsc3c(N3CCN(CC)CC3)n2)cc1` [Example 452, 7-(4-ethylpiperazin-1-yl)-5-[4-(N-butylcarbamoyl)phenyl]thieno[2,3-c]pyridine dihydrochloride], the figures for the Ki at serotonin 2 receptor and at serotonin 1A receptor were 0.00704 µM and 0.0196 µM, respectively.

Consider `CCN1CCN(c2nc(/C=C/c3ccccc3OC)cc3ccccc23)CC1` [Example 195, 1-(1-Ethylpiperazin-4-Yl)-3-[Trans-2-(2-Methoxyphenyl)Ethenyl]Isoquinoline Oxalate], for which the Ki on serotonin 2 receptor amounted to 0.0372 µM; at serotonin 1A receptor it was 0.023 µM.

Consider `CCN1CCN(c2nc(-c3ccc(S(=O)(=O)NCCO)cc3)cc3ccccc23)CC1` [Example 347, 1-(4-ethylpiperazin-1-yl)-3-{4-[N-(2-hydroxyethyl)sulfamoyl]phenyl}isoquinoline dihydrochloride], for which the Ki is 0.0242 µM at serotonin 2 receptor and 0.008 µM on serotonin 1A receptor.

Turning to `CCN1CCN(c2nc(-c3ccc(OCC4OCCO4)cc3)cc3ccccc23)CC1` [Example 336, 1-(4-ethylpiperazin-1-yl)-3-[4-(1,3-dioxolan-2-ylmethyloxy)phenyl]isoquinoline], the Ki on serotonin 2 receptor is 0.0026 µM; at serotonin 1A receptor, 0.0457 µM.

In the case of `CCN1CCN(c2nc(-c3ccc(OCC(C)(C)O)cc3)cc3cccnc23)CC1` [Example 250, 8-(1-ethylpiperazin-4-yl)-6-[4-(2-hydroxy-2-methylpropoxy)phenyl]-1,7-naphthyridine Dihydrochloride], the Ki worked out at 0.00767 µM at serotonin 2 receptor and 0.123 µM at serotonin 1A receptor.

Consider `CCN1CCN(c2nc(-c3ccnc(OCc4ccccc4)c3)cc3ccccc23)CC1` [406 2-Benzyloxy, 1-(4-ethylpiperazin-1-yl)-3-(2-benzyloxypyridin-4-yl)isoquinoline], for which the Ki at serotonin 2 receptor came to 0.0881 µM; at serotonin 1A receptor, 0.046 µM.
